{"source": "patent US6602664B2", "about": "(priority 1998, dated 2003)", "key": {"[1]": {"test_system": "recombinant HIV-1 virus isolates", "format": "cell-based", "from_the_text": "The aim of the study was to determine the potency of the inhibitory effect of a new generation of NRTIs on Multi Drug Resistant isolates and to compare it with their effect on wild-type HIV-1 isolates. All recombinant viruses were taken from the VIRCO repository of phenotypically and genotypically characterized virus isolates. Hirsch et al. Antiretroviral Drug Resistance Testing in Adults with HIV Infection. JAMA; 1998: 79(24) 1984-1991. See also Pauwels et al. Comprehensive HIV drug Resistance monitoring using rapid, high-throughput phenotypic and genotypic assays with correlative data analysis. Antiviral Therapy, 1998: 3: 35 Abstract 51.\nPhenotypic drug susceptibility determination of recombinant virus isolates is described in Hertogs et al. A Rapid Method for Simultaneous Detection of Phentypic Resistance to Inhibitors of Protease and Reverse Transcriptase in Recombinant HIV-1 Isolates from Patients Treated with Antiretroviral Drugs. Antimicrob. Agents Chemother. 1998; 42(2): 269-276. The basic principle of the Antivirogram® technology is the construction of chimeric HIV-1 strains composed of the protease (PR) and reverse transcriptase (RT) gene sequences which are isolated and amplified from patient viral RNA. Amplicons are subsequently transfected into CD4+T cells together with a standard laboratory isogenic (HXB2) HIV-1 DNA construct from which the PR/RT gene sequences were deleted. After homologous recombination, new viruses whose diversity reflects the original population amplified from the plasma are produced at high level from these cells.\nThe virus infectivity (CCID50) is determined by an end-point dilution method. The titer is calculated from the degree of infection, measured by the intensity of reporter-gene signal as generated by serial dilutions of the virus shock. The chimeric (clinical isolates and wild-type reference) viruses are then analyzed for their phenotypic sensitivity (i.e. susceptibility) to the different PR and RT-inhibitors in an automated reporter gene-based assay using serial dilutions of the compound. The standardisation of the Antivirogram®n assay allows for simultaneous testing of all clinically approved drugs in one 384-well microtiter plate. The experimental drugs are included in separate plates. Each plate contains multiple replicates of mock-infected wells, virus-infection control wells and blank (medium-only) well. All plates are tested in duplicate. 50% Inhibitory concentrations are calculated based on reporter signals obtained through optical reading of 384-well plates containing serial dilutions of compounds, a normalised quantity of virus and by taking into account all relevant control wells. Approval (or not) is done according to critical ranges and settings as described in the corresponding VIRCO Standard Operating Procedure.\nA more detailed description of the protocol is as follows. Samples were stored frozen. […] To confirm the genotypic pattern, genotyping (ABI-sequencing) was performed after recombination and culture of the laboratory strains by analysis of cell viability, calculation of results (dose-response curves, IC50 values), and reporting of data."}, "[2]": {"test_system": "HIV-1 replication in human PBM cells", "assay": "microbe, parasite or virus in culture", "format": "cell-based", "method": "Cells and viruses. […] Antimicrobial Agents Chemother 1992;36(11): 2423-2431.\nCell pellets were washed, centrifuged, lysed and the proviral DNA extracted as previously described. Cytotoxicity of the compounds was determined using the Promega Cell Titer 96 dye uptake assay (Madison, Wis.) in 1-2 day PHA-stimulated PBM cells after 5 days in culture. The median effective concentration (EC50) and inhibitory concentration (IC50) were derived from the computer-generated median effect plot of the dose-effect data, as described previously."}}, "note": "Structures can show the parent of a compound that is named as a salt. Where two headings read alike, the source gives them in different places.", "data": [{"smiles": "Nc1ccn([C@@H]2CS[C@H](CO)O2)c(=O)n1", "note": "[3TC, (−)-β-2′,3′-dideoxy-3′-thiacytidine]", "values": [{"measurement": "fold Resistance", "setting": "[1]; RT genotype D67D/N, K70R, M184V, G333E", "value": ">99"}, {"measurement": "fold Resistance", "setting": "[1]; RT genotype D67N, K70R, K219Q/K, 181C/Y", "value": 3.7}, {"measurement": "fold Resistance", "setting": "[1]; RT genotype K70R, K219Q", "value": 1}, {"measurement": "fold Resistance", "setting": "[1]; RT genotype M41L, D67N, K70R, K103N, L210W, T215Y, K219N/K", "value": 8.25}, {"measurement": "fold Resistance", "setting": "[1]; RT genotype M41L, L210L, T215Y, Y181C/Y, M184M/V", "value": 3}, {"measurement": "fold Resistance", "setting": "[1]; RT genotype M41L, L210W, T215Y", "value": 0.4}, {"measurement": "fold Resistance", "setting": "[1]; RT genotype M41L, T69S-V-T, L210W, T215Y, G333E", "value": ">65"}, {"measurement": "fold Resistance", "setting": "[1]; RT genotype M41L, T215Y, M184V", "value": ">99"}, {"measurement": "fold Resistance", "setting": "[1]; RT genotype T69G, Q151M, M184V/M", "value": ">65"}, {"measurement": "fold Resistance", "setting": "[1]; RT genotype T69I, K70R, Q151M, M184V", "value": ">65"}, {"measurement": "fold Resistance", "setting": "[1]; RT genotype T69S-E, M184I, T215Y", "value": ">65"}, {"measurement": "fold Resistance", "setting": "[1]; RT genotype T215Y", "value": 1.5}, {"measurement": "fold Resistance", "setting": "[1]; recombinant isolate, RT genotype K70R", "value": 1}, {"measurement": "EC50", "setting": "[2]; Human immunodeficiency virus 1, PBMC, Table 2, human PBMC", "value": 6.7, "unit": "nM"}, {"measurement": "EC90", "setting": "[2]; Human immunodeficiency virus 1, PBMC, Table 2, human PBMC, read-out: EC90", "value": 51, "unit": "nM"}, {"measurement": "m ± SE (slope of median effect plot)", "setting": "[2]; Table 2, human PBMC", "value": "1.08 ± 0.15"}]}, {"smiles": "CC(C)(C)NC(=O)[C@@H]1CN(Cc2cccnc2)CCN1C[C@@H](O)C[C@@H](Cc1ccccc1)C(=O)N[C@H]1c2ccccc2C[C@H]1O", "note": "[Indinavir, {1(1,S,2R),5(S)]-2,3,5-trideoxy-N-(2,3-dihydro-2-hydroxy-1H-inden-1-yl)-5-[2-[[(1,1-dimethylethyl)amino]carbonyl]4-(3-pyridinylmethyl)-1-piperazinyl]-2-(phenylmethyl)-D-erythro-pentoamide sulfate]", "values": [{"measurement": "m ± SE (slope of median effect plot)", "setting": "[2]", "value": "0.86 ± 0.17"}, {"measurement": "EC90", "setting": "[2]; Human immunodeficiency virus 1, PBMC", "value": 19, "unit": "nM"}, {"measurement": "inhibition at 1 µM", "setting": "[2]; Human immunodeficiency virus 1, PBMC, 144 h, concentration 0.001 mM, day 6, read-out: Inhibition %", "value": 29.9, "unit": "%"}, {"measurement": "inhibition at 10 µM", "setting": "[2]; Human immunodeficiency virus 1, PBMC, 144 h, concentration 0.01 mM, day 6, read-out: Inhibition %", "value": 88.7, "unit": "%"}, {"measurement": "EC50", "setting": "[2]; Human immunodeficiency virus 1, PBMC, Table 3A, human PBMC", "value": 1.5, "unit": "nM"}]}, {"smiles": "Nc1nc(N)c2ncn([C@H]3CO[C@@H](CO)O3)c2n1", "note": "[DAPD, β-D-dioxolanyl-2,6-diaminopurine]", "values": [{"measurement": "EC50", "setting": "[2]; Table 3, human PBMC", "value": 1810, "unit": "nM"}, {"measurement": "m ± SE (slope of median effect plot)", "setting": "[2]; Table 3, human PBMC", "value": "1.40 ± 0.14"}, {"measurement": "EC90", "setting": "[2]; Table 3, human PBMC, read-out: EC90", "value": 8680, "unit": "nM"}]}]}
